Patent US8143374B2, “Polypeptide derivatives of parathyroid hormone (PTH)” (The General Hospital Corporation, priority 2006, dated 2012)

Molecular target: T1, endogenous PTHR in ROS 17/2.8 cells (Rattus norvegicus, UniProt P25961)
T1 construct: ROS 17/2.8 cells are rat osteosarcoma cells and express the endogenous PTHR; endogenous in cells; host or cells: ROS 17/2.8 rat osteosarcoma cells
T1 sequence (P25961 27-591): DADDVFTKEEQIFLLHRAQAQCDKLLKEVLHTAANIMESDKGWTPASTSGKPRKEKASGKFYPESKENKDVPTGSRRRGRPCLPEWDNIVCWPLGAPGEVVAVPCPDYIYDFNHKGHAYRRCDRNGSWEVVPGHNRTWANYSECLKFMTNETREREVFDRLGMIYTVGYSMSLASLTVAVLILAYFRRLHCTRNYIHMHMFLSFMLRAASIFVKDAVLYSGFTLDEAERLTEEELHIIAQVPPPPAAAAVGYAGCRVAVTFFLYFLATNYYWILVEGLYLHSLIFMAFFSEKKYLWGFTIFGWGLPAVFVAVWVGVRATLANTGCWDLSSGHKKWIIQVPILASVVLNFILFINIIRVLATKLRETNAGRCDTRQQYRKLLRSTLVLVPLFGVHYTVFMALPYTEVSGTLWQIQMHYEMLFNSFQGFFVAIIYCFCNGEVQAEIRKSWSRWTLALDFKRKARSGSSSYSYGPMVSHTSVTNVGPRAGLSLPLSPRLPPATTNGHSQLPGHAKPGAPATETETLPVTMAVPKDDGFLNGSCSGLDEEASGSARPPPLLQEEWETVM
Assay: Stimulation of intracellular cAMP in ROS 17/2.8 cells
Assay type: cell-based
Description: Cell Culture—Cells were cultured at 37° C. in a humidified atmosphere containing 5% CO2 in Dulbecco's modified Eagle's medium (DMEM), supplemented with 10% fetal bovine serum (HyClone, Logan Utah), 100 units/ml penicillin G, and 100 ug/ml streptomycin penicillin G/streptomycin (Invitrogen Corp. Carlsbad, Calif.). For binding and cAMP studies performed with the intact PTHR, the HKRK-B7 and ROS 17/2.8 cell lines were used. HKRK-B7 cells are derived from the porcine kidney cell line LLC-PK1 and express, via stable DNA transfection, the wild-type human PTHR at an approximate surface density of 950,000 PTH-binding sites per cell. ROS 17/2.8 cells are rat osteosarcoma cells and express the endogenous PTHR at an approximate surface density of 80,000 PTH-binding sites per cell. The cells were plated and assayed in 24-well plates.
Stimulation of intracellular cAMP and inositol phosphate—The capacities of the ligands to stimulate adenylyl cyclase activity were assessed in intact ROS 17/2.8 cells, as described (Shimizu, M., (2001) Endocrinology 142:3068-3074). […] The cAMP in the thawed lysate was then quantified by radioimmuno assay. The stimulation of production of inositol phosphates (IP1+IP2+IP3) was assessed in COS-7 cells transfected with the intact human PTHR, as described previously (Shimizu, M., (2001) Endocrinology 142:3068-3074). […]

- EC50: 59 ± 31 nM
Sequence: SVSEIQLMHNLGKHLNSMEEVEWLRKKLQDV [Arg^20→Glu]
